Assay results taken from patent US20240293513A1, “USE OF MAZDUTIDE” (INNOVENT BIOLOGICS (SUZHOU) CO., LTD., priority 2021, published 2024).

Experiments:
healthy subjects = assay: Single dose study in healthy subjects (18P-MC-OXAA), safety and tolerability; assay type: in vivo, human
Description: In another aspect of the present invention, provided is a pharmaceutical composition for reducing a uric acid level in a patient, comprising a compound of formula (I) or a pharmaceutically acceptable salt thereof, and at least one pharmaceutically acceptable carrier.
A single dose study in healthy subjects (18P-MC-OXAA): a single center, double-blind, randomized, placebo-controlled SAD study has been completed (ascending doses of 0.03 mg, 0.1 mg, 0.3 mg, 1.0 mg, 2.5 mg, and 5.0 mg), which mainly assessed the safety, tolerability, and PK/PD profile of mazdutide in healthy subjects.

[1] = test system: patients with obesity or overweight; assay: Safety assessment in patients with obesity or overweight (12-week dose escalation); assay type: in vivo, human
Description: (§1) Mazdutide and placebo were both administered subcutaneously once weekly. The doses were prepared and administered by study nurses according to the manual instructions of the study drugs. • 1.5 Inclusion criteria
I. Subjects with obesity or overweight meeting all of the following criteria were included in the study: • 1. Aged 18-75 years (inclusive), male or female: • 2. For obesity, BMI≥28.0 kg/m^2: for overweight, 24≤ BMI<28.0 kg/m^2 with at least one of the following: i, increased appetite, intolerable hunger before meals, and increased food consumption: ii, comorbidity with one or more of pre-diabetes (impaired fasting glucose and/or impaired glucose tolerance), hypertension, dyslipidemia (see appendix 4 for reference criteria), and fatty liver (within 6 months before the screening); iii, comorbidity with weight-bearing joint pain: iv, obesity-related dyspnea or obstructive sleep apnea syndrome: • 3. Weight change<5% after at least 12 weeks of diet/exercise weight control at the time of screening
In this study, the enrollment of 36 patients with overweight or obesity having a weight change of less than 5% after at least 12 weeks of diet/exercise control was planned. Three cohorts were included in this double-blind study: cohort 1 (n=12), cohort 2 (n=12), and cohort 3 (n=12). Subjects in each cohort were randomized in a 2:1 ratio into the mazdutide treatment group (n=8) and the placebo group (n=4). The subcutaneous dosing regimens for mazdutide or placebo in cohort 1, cohort 2 and cohort 3, are described below (as shown in FIG. 1):
(§2) Cohort 1: Subjects were administered with a starting dose of 1.0 mg once weekly for 4 weeks. If the treatment was well tolerated*, the dose was adjusted to 2.0 mg, and was administered once weekly for 4 weeks. If the treatment was well tolerated*, the dose was adjusted to 3.0 mg, and was administered once weekly for 4 weeks. (ascending at a rate of 1 mg/4 weeks to the target dose).
Cohort 2: Subjects were administered with a starting dose of 1.5 mg once weekly for 4 weeks. If the treatment was well tolerated*, the dose was adjusted to 3.0 mg, and was administered once weekly for 4 weeks. If the treatment was well tolerated*, the dose was adjusted to 4.5 mg, and was administered once weekly for 4 weeks (ascending at a rate of 1.5 mg/4 weeks to the target dose).
Cohort 3: Treatment in cohort 3 was started when the 4-week treatment at 1.5 mg was completed and well tolerated in the subjects in cohort 2: if 1.5 mg was not tolerated in cohort 2, 2.0 mg and higher doses were not investigated in cohort 3. In this cohort, subjects were administered with a starting dose of 2.0 mg once weekly for 4 weeks. If the treatment was well tolerated*, the dose was adjusted to 4.0 mg, and was administered once weekly for 4 weeks. If the treatment was well tolerated*, the dose was adjusted to 6.0 mg, and was administered once weekly for 4 weeks. (ascending at a rate of 2 mg/4 weeks to the target dose).
For patients with obesity or overweight: By Mar. 15, 2021, 36 subjects were enrolled and 36 were included in the analysis. […] Only 2 patients in cohort 1 had mild urticaria. […] The gastrointestinal events occurred at a higher rate in the treatment group than in the placebo group, which complies with the mechanism of action of the drug.

patients with diabetes = assay: Safety assessment in patients with type 2 diabetes (12-week dose escalation); assay type: in vivo, human
Description: as §1
(§3) In this study, the enrollment of 42 patients with type 2 diabetes with uncontrolled glycosylated hemoglobin despite at least 2 months of lifestyle intervention or treatment with a stable dose of metformin (≥1000 mg/day or the maximum tolerated dose). Three cohorts were included in this study: cohort 1 (n=14), cohort 2 (n=14), and cohort 3 (n=14). Subjects in each cohort were randomized in an 8:4:2 ratio into the mazdutide treatment group (n=8), the placebo group (n=4), and the dulaglutide 1.5 mg treatment group (n=2). In cohorts 1, 2, and 3, the active control drug, dulaglutide, was administered at 1.5 mg QW for 12 weeks, and the dosing regimens for mazdutide and placebo are described below:
as §2
(§4) Cohort 2: Subjects were administered with a starting dose of 1.5 mg once weekly for 4 weeks.
If the treatment was well tolerated*, the dose was adjusted to 3.0 mg, and was administered once weekly for 4 weeks. If 3.0 mg was not well tolerated but still met the tolerance criteria, the next dose was investigated in cohort 2 (backup 1): if the dose was well tolerated, the study proceeded to 4.5 mg. The treatment was given once weekly for 4 weeks, if 4.5 mg was not well tolerated but still met the tolerance criteria, the next dose was investigated in cohort 2 (backup 2). (ascending at a rate of 1.5 mg/4 weeks to the target dose).
Cohort 2 (backup 2): If 4.5 mg was not tolerated, the treatment should be discontinued for 1 week and resumed at the dose of 3.75 mg for 2 weeks until the end of study. […]

[2] = Stability of the drug substance; assay type: physicochemical; settings: ≤−20° C.
[3] = Solubility of the investigational product; assay type: physicochemical; settings: 20 mM tris(hydroxymethyl)aminomethane solutions and 150 mM NaCl solutions with pH 8.0
uric acid = assay: Change in uric acid from baseline in subjects with type 2 diabetes; assay type: in vivo, human; settings: 1.5 mg QW for 12 weeks, day 85 post-dose vs baseline, N = 6
Description: FIG. 3 illustrates the change in uric acid from baseline after administration in subjects with diabetes.
as §3, §2, §4
If the treatment was well tolerated*, the dose was adjusted to 3.0 mg, and was administered once weekly for 4 weeks. […]

Molecule: CC(C)C[C@H](NC(=O)[C@H](CC(C)C)NC(=O)[C@H](Cc1c[nH]c2ccccc12)NC(=O)[C@H](CCC(=O)O)NC(=O)[C@@H](NC(=O)[C@H](Cc1ccccc1)NC(=O)[C@H](CCC(=O)O)NC(=O)[C@H](CCCCNC(=O)COCCOCCNC(=O)COCCOCCNC(=O)CC[C@H](NC(=O)CCCCCCCCCCCCCCCCCCC(=O)O)C(=O)O)NC(=O)[C@H](C)NC(=O)[C@H](CCCCN)NC(=O)[C@H](CCCCN)NC(=O)[C@H](CCC(=O)O)NC(=O)[C@H](CC(=O)O)NC(=O)[C@H](CC(C)C)NC(=O)[C@H](Cc1ccc(O)cc1)NC(=O)[C@H](CCCCN)NC(=O)[C@H](CO)NC(=O)[C@H](Cc1ccc(O)cc1)NC(=O)[C@H](CC(=O)O)NC(=O)[C@H](CO)NC(=O)[C@@H](NC(=O)[C@H](Cc1ccccc1)NC(=O)[C@@H](NC(=O)CNC(=O)[C@H](CCC(N)=O)NC(=O)C(C)(C)NC(=O)[C@@H](N)Cc1c[nH]cn1)[C@@H](C)O)[C@@H](C)O)C(C)C)C(=O)N[C@@H](CCC(=O)O)C(=O)NCC(=O)NCC(=O)N1CCC[C@H]1C(=O)N[C@@H](CO)C(=O)N[C@@H](CO)C(=O)NCC(N)=O [mazdutide]
- tolerability (healthy subjects; healthy subjects, dose ascended to 2.5 mg): tolerated
- subjects with gastrointestinal-related AEs (mainly nausea and vomiting) (healthy subjects; healthy subjects, dose ascended to 5 mg): 6 subjects
- maximum tolerated dose (MTD) for single-dose administration (healthy subjects; healthy subjects, single ascending doses 0.03-5.0 mg): 2.5 mg
- safety and tolerability (healthy subjects; single-dose and multi-dose escalation studies in healthy populations): good safety and tolerability
- SAEs [1]: no SAEs
- acute pancreatitis [1]: no acute pancreatitis
- discontinuation or withdrawal due to AEs [1]: no discontinuation or withdrawal due to AEs
- dose escalation termination-related AEs [1]: no dose escalation termination-related AEs
- hypoglycemia events [1]: no hypoglycemia events
- severe adverse events [1]: no severe adverse events
- patients with mild urticaria ([1]; cohort 1 (1 mg-2 mg-3 mg)): 2 patients
- overall safety and tolerance ([1]; sc once weekly, 12 weeks): good overall safety and tolerance
- anorexia rate of occurrence ([1]; treatment group): 29.2%
- diarrhea rate of occurrence ([1]; treatment group): 25%
- nausea rate of occurrence ([1]; treatment group): 16.7%
- Gastrointestinal adverse events rate ([1]; treatment group, 15/24 cases): 62.5%
- average heart rate ([1]; versus placebo group): increase in average heart rate over the placebo group
- acute pancreatitis, severe hypoglycemia, allergic reaction or injection site reaction (patients with diabetes): no acute pancreatitis, severe hypoglycemia, allergic reaction or injection site reaction
- dose escalation termination-related AEs (patients with diabetes): no dose escalation termination-related AEs
- overall safety and tolerance (patients with diabetes; sc once weekly, 12 weeks): good overall safety and tolerance
- Stability [2]: The drug substance is stable at ≤−20 °C
- solubility [3]: ≥ 10000 µg/mL

Molecule: Dulaglutide
- Uric acid Mean of change (uric acid): 16.67 µmol/L
